Experimental data as given in patent US6989397B1, “Iron chelators and uses thereof” (University of Queensland, priority 1999, dated 2006).
Where “and” joins values, the source holds several entries; their conditions need not be identical. Equal values may be shown once.

test system: BE-2 neuroblastoma cells; assay: 59Fe release from prelabelled cells (iron efflux); type: cell-based; settings: labelled 3 h with 59Fe-transferrin 0.75 μM, reincubated 3 h at 37° C., chelators 50 μM, DFO 100 μM, Mean±SD
Protocol: The effect of chelators on ^59Fe uptake from ^59Fe-Tf and ^59Fe release from prelabelled cells was studied using standard procedures reported previously (Richardson et al., 1994, J. Lab Clin. Med. 124 660–71). The amount of ^59Fe internalized by the cells was measured by incubation with the general protease pronase (1 mg/ml) for 30 min at 4° C. to remove membrane-bound ^59Fe and Tf (Richardson et al., 1990; Baker et al., 1998, Biochim. Biophys. Acta 1380 21–30).
Table 1. The effect of DFO, 311, PCTH, PCBH, or PCBHH on ^59Fe release from BE-2 neuroblastoma cells, SK-N-MC neuroepithelioma cells, and SK-Mel-28 melanoma cells. Cells were labeled for 3 h at 37° C. with ^59Fe-transferrin (0.75 μM), washed, and then reincubated with the chelators for 3 h at 37° C. […] Results are Mean±SD of three determinations in a typical experiment.

SMILES | % Cellular Iron Released [%]
O=C(NN=Cc1c(O)ccc2ccccc12)c1ccncc1 [Chelator 311, 2-hydroxy-1-naphthylaldehyde isonicotinoyl hydrazone, reference compound] | 52 ± 1
CC(=O)N(O)CCCCCNC(=O)CCC(=O)N(O)CCCCCNC(=O)CCC(=O)N(O)CCCCCN [DFO, desferrioxamine, reference compound] | 44 ± 2
O=C(NN=Cc1ccccn1)c1ccccc1 [PCBH, 2-pyridylcarboxaldehyde benzoyl hydrazone] | 44 ± 1
O=C(NN=Cc1ccccn1)c1cccs1 [PCTH, 2-pyridylcarboxaldehyde 2-thiophenecarboxyl hydrazone] | 50 ± 1

test system: SK-N-MC neuroepithelioma cells; assay: 3H-thymidine, 3H-leucine or 3H-uridine incorporation; type: cell-based, human; settings: 20 hr with chelators 50 μM, DFO 100 μM, then label 2 h, Mean±SD
Protocol: Labelling of cells with ^3H-thymidine (20 Ci/mmol: Dupont NEN, MA, U.S.A.), ^3H-uridine (42.7 Ci/mmol/Dupont NEN, MA, U.S.A.) and ^3H-leucine (52 Ci/mmol: Dupont NEN) was estimated after precipitation with trichloroacetic acid (TCA). After a 20 hr incubation with the chelators, ^3H-leucine, ^3H-uridine or ^3H-thymidine (1 μCi/ml) were then added for 2 hrs at 37° C. Subsequently, petri dishes containing cell cultures were placed on ice and washed four times with ice-cold Hanks' balanced salt solution (BSS) and the cells detached from the plate using 1 mM EDTA in Ca/Mg-free saline. The cells were then pelleted by centrifugation, the supernatant removed and the pellet frozen at −70° C. After thawing the cells on ice, 1 ml of ice-cold 20% TCA was added and the solution then vortexed and kept on ice for 1 hr with periodic mixing. This solution was then centrifuged at 15,000 rpm for 15 mins at 4° C. and the supernatant removed. The pellet was then washed twice with 1 ml of ice-cold 10% TCA. The pellet was dissolved in 0.5 ml of 1 M NaOH and transferred to scintillation tubes with 3 ml of scintillant. Radioactivity was measured on a β-scintillation counter (LKB Wallace, Finland).
Table 3. The effect of the chelators on ^3H-thymidine, ^3H-leucine, or ^3H-uridine incorporation into SK-N-MC neuroepithelioma cells. Cells were incubated for 20 hr at 37° C. with either DFO (100 μM) or the other chelators (50 μM). Following this, either ^3H-thymidine, ^3H-leucine, or ^3H-uridine (1 μCi/mL) were added and the cells incubated for an additional 2 h at 37° C. (see Methods for details). Results are Mean±SD (4–5 determinations) from a typical experiment of 2–4 experiments performed.

SMILES | 3H-Leucine incorporation, % Control | 3H-Thymidine incorporation, % Control | 3H-Uridine incorporation, % Control
O=C(NN=Cc1c(O)ccc2ccccc12)c1ccncc1 [Chelator 311, 2-hydroxy-1-naphthylaldehyde isonicotinoyl hydrazone, reference compound] | 2 % Control and 2 ± 0.3 % Control | 0.1 % Control and 0.1 ± 0.1 % Control | 5 % Control and 5 ± 2 % Control
CC(=O)N(O)CCCCCNC(=O)CCC(=O)N(O)CCCCCNC(=O)CCC(=O)N(O)CCCCCN [DFO, desferrioxamine, reference compound] | 9 % Control and 9 ± 0.7 % Control | 29 ± 13 % Control | 34 % Control and 34 ± 5 % Control
O=C(NN=Cc1ccco1)c1ccncc1 [FIH, 2furoylcarboxaldehyde isonicotinoyl hydrazone] | 78 ± 5 % Control | 17 ± 4 % Control | 48 ± 10 % Control
O=C(NN=Cc1ccccn1)c1ccccc1 [PCBH, 2-pyridylcarboxaldehyde benzoyl hydrazone] | 30 ± 13 % Control | 72 % Control and 72 ± 16 % Control | 31 ± 9 % Control
O=C(NN=Cc1ccccn1)c1cccs1 [PCTH, 2-pyridylcarboxaldehyde 2-thiophenecarboxyl hydrazone] | 21 ± 6 % Control | 64 % Control and 64 ± 14 % Control | 43 ± 2 % Control

test system: GADD45 mRNA; assay: Northern blot analysis of mRNA levels; type: cell-based, human; settings: SK-N-MC cells, 20 h; chelators 25 μM, DFO 100 μM
Protocol: (§1) FIG. 6. The effect of the chelators on mRNA levels of GADD45, WAF1 and β-actin in SK-N-MC neuroepithelioma cells. Total RNA was extracted from cells after a 20 h incubation with medium alone (control) or medium containing ferric ammonium citrate (100 μg/mL), DFO (100 μM), or the other chelators (25 μM). The isolated RNA was then electrophoresed on a 1.2% agarose-formaldehyde gel, transferred to a hybridisation membrane, and probed under high stringency conditions.
(§2) Northern blot analysis was performed by isolating total RNA using the Total RNA isolation Reagent from Advanced Biotechnologies Ltd (Surrey, United Kingdom). The RNA (15 μg) was heat denatured at 90° C. for 2 mins in RNA-loading buffer and then loaded onto a 1.2% agarose-formaldehyde gel. After electrophoresis, RNA was transferred to a nylon membrane (GeneScreen, New England Nuclear, Boston, USA) in 10×SSC using the capillary blotting method. The RNA was then cross-linked to the membrane using a UV-crosslinker (UV Stratalinker 1800, Stragene Ltd., USA).
(§3) The membranes were hybridized with probes specific for human WAF1, GADD-45 and β-actin. The WAF1 probe consisted of a 1 kb fragment from pSXV(ATTC: Cat. No. 79928). The GADD45 probe consisted of a 760 bp fragment from human GADD45 cDNA cloned into pHu145B2 (kindly supplied by Dr. Albert Fornace, National Cancer Institute, NIH, Maryland). The β-actin probe consisted of a 1.4 kb fragment from human β-actin cDNA cloned into pBluescript SK-(ATTC: at. No 37997).
(§4) Hybridization of probes to the membranes and their subsequent washing were performed as described by Mahmoudi and Lin, 1989, Biotechniques 7, 331–2 using a Hybaid Shake and Stack Hybridization oven (Hybaid Ltd., Middlesex, UK). The membranes were then exposed to Kodak XAR Films at −70° C. with an intensifying screen. The probes were stripped from the nylon membrane by boiling in a solution containing 10 mM Tris-HCl (pH 7.0). 1 mM EDTA (pH 8.0) and 1% SDS for 15–30 mins as described by the membrane manufacturer. Densitometric data were collected with a Laser Densitometer and analyzed by Kodak Biomax Software (Kodak Ltd, USA).

SMILES | level of GADD45 mRNA (FIG. 6)
O=C(NN=Cc1c(O)ccc2ccccc12)c1ccncc1 [Chelator 311, 2-hydroxy-1-naphthylaldehyde isonicotinoyl hydrazone, reference compound] | increase
O=C(NN=Cc1ccccn1)c1ccccc1 [PCBH, 2-pyridylcarboxaldehyde benzoyl hydrazone] | did not have any effect
O=C(NN=Cc1ccccn1)c1cccs1 [PCTH, 2-pyridylcarboxaldehyde 2-thiophenecarboxyl hydrazone] | did not have any effect

test system: WAF1 mRNA; assay: Northern blot analysis of mRNA levels; type: cell-based, human; settings: SK-N-MC cells, 20 h; chelators 25 μM, DFO 100 μM
Protocol: as §1, §2, §3, §4

SMILES | level of WAF1 mRNA (FIG. 6)
O=C(NN=Cc1c(O)ccc2ccccc12)c1ccncc1 [Chelator 311, 2-hydroxy-1-naphthylaldehyde isonicotinoyl hydrazone, reference compound] | increase
O=C(NN=Cc1ccccn1)c1ccccc1 [PCBH, 2-pyridylcarboxaldehyde benzoyl hydrazone] | did not have any effect
O=C(NN=Cc1ccccn1)c1cccs1 [PCTH, 2-pyridylcarboxaldehyde 2-thiophenecarboxyl hydrazone] | did not have any effect
